Measured values: patent publication US20250179078A1, “INHIBITORS OF NLRP3” (PTC THERAPEUTICS, INC., priority 2022, published 2025)

Target: T1, NLRP3 (Homo sapiens, UniProt Q96P20)
T1 construct: host or cells: THP-1 cells differentiated with PMA
Assay: IL-1β Secretion Assay (NLRP3-dependent IL1β secretion in THP1 cells)
Format: cell-based
Details: PMA-differentiated THP-1 cells; compounds incubated 20 h; 2.5 μM Nigericin 3 h; HTRF IL-1β readout; read-out: IC50 IL-1β Inhibition
Experimental: Monocytic THP-1 cells (ATCC: TIB-202) were maintained in growth media consisting of RPMI 1640 medium (ThermoFisher, Cat #11875-085), 10% FBS (ThermoFisher) and 0.05 mM β-mercaptoethanol (ThermoFisher, Cat #21985-023), according to the provider's instructions. The cell concentration was adjusted to 7.5×10^5 cells/mL, and plated in complete growth media with a final concentration of 100 ng/mL phorbol 12-myristate 13-acetate (PMA, Sigma #P8139). Cells were seeded at 100 µL/well into a 96-well cell culture plate (ThermoFisher Cat #165305) and allowed to differentiate for 24 h in a cell culture incubator at 37° C. with 5% CO2. Cells were washed 1× with 100 ul PBS and replaced with fresh RPMI+5% FBS. Compounds were serial diluted in DMSO with 3 fold dilution for a total of 7 concentrations. Diluted compounds were added to the cells at a ratio of 1:200 and incubated for 20 h. The NLRP3 inflammasome was activated with the addition of 2.5 μM Nigericin (Sigma: Cat #SML1779-1 ml), for 3 h. After incubation, 15 μL of conditioned media was removed and assayed for levels of IL-1β using the HTRF IL-1β assay kit (Cisbio: Cat #62HIL1BPEH) as per the manufacturer's instructions.
Compounds, once produced and prepared according to the present invention, can be assessed in variety of assays to characterize their activities. For example, NLRP3-dependent IL1β secretion was evaluated in THP1 cells. IC50 values of IL1β inhibition were calculated from the plot of percentage of inhibition versus the inhibitor concentration by a logistics fit. TABLE I depict examples of compounds according to generic Formula I. Data which is <1 nM is listed as *****; data 1-10 nM is listed as ****; data 10-100 nM is listed as ***, data 100-300 nM is listed as **, data ≥300 nM is listed as *.

T1 sequence (Q96P20 whole entry): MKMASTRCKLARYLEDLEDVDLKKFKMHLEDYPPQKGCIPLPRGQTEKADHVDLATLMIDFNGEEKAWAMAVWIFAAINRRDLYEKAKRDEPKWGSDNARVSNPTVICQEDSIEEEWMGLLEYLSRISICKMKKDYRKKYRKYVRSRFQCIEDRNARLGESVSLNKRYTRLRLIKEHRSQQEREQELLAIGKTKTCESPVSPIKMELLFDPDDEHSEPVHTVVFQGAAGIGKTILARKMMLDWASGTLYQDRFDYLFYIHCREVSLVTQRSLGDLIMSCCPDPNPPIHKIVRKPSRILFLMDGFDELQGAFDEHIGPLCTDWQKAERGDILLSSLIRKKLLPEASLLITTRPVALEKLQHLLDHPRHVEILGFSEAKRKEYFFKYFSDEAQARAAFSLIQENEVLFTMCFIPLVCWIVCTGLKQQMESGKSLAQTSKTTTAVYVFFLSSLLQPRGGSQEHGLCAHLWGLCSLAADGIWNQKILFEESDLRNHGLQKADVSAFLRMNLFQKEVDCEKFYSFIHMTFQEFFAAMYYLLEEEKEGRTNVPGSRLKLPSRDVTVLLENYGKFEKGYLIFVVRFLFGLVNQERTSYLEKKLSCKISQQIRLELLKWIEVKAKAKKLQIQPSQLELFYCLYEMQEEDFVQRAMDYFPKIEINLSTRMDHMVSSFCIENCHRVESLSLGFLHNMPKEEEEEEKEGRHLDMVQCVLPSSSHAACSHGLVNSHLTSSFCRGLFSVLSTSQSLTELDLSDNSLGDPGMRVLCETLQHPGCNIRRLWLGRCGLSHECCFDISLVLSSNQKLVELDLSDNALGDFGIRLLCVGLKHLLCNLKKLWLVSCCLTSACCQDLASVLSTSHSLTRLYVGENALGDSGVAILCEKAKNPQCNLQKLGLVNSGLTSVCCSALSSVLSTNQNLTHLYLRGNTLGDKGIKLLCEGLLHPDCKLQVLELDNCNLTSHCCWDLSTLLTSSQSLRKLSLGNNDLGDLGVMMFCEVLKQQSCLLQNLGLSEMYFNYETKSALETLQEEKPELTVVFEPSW

IC50	Compound
10 to 100 nM	COc1ccc(-c2nnc(Nc3cc[nH]n3)n3cncc23)c(C(F)(F)F)c1 [Compound 228, 1-[4-methoxy-2-(trifluoromethyl)phenyl]-N-(1H-pyrazol-3-yl)imidazo[1,5-d][1,2,4]triazin-4-amine]
10 to 100 nM	Cc1cc2c(-c3ccc(C(F)(F)F)cc3OC(F)(F)F)nnc(N[C@@H]3CCCC[C@H]3O)n2n1 [Compound 382, (1R,2R)-2-({2-methyl-4-[2-(trifluoromethoxy)-4-(trifluoromethyl)phenyl]pyrazolo[1,5-d][1,2,4]triazin-7-yl}amino)cyclohexan-1-ol]
10 to 100 nM	COc1ccc(-c2nnc(NC3CC(C)(CO)C3)n3cncc23)c(CC(F)(F)F)c1 (centres unmarked) [Compound 337, [3-({1-[4-methoxy-2-(2,2,2-trifluoroethyl)phenyl]imidazo[1,5-d][1,2,4]triazin-4-yl}amino)-1-methylcyclobutyl]methanol]
< 1 nM	CN1CCC[C@@H](Nc2nnc(-c3ccc(C(F)(F)F)cc3C(F)(F)F)c3cncn23)C1 [Compound 217, 1-[2,4-bis(trifluoromethyl)phenyl]-N-[(3R)-1-methylpiperidin-3-yl]imidazo[1,5-d][1,2,4]triazin-4-amine]
1 to 10 nM	COc1ccc(-c2nnc(N[C@@H]3CCCC[C@H]3O)n3cncc23)c(OC(F)(F)F)c1 [Compound 223, (1R,2R)-2-({1-[4-methoxy-2-(trifluoromethoxy)phenyl]imidazo[1,5-d][1,2,4]triazin-4-yl}amino)cyclohexan-1-ol]
1 to 10 nM	CN1CCCC(Nc2nnc(-c3ccc(C(F)(F)F)cc3C(F)(F)F)c3cncn23)C1=O (centres unmarked) [Compound 272, 3-({1-[2,4-bis(trifluoromethyl)phenyl]imidazo[1,5-d][1,2,4]triazin-4-yl}amino)-1-methylpiperidin-2-one]
1 to 10 nM	O=C1NCCC1Nc1nnc(-c2ccc(C3CC3)cc2CC(F)(F)F)c2cncn12 (centres unmarked) [Compound 350, 3-({1-[4-cyclopropyl-2-(2,2,2-trifluoroethyl)phenyl]imidazo[1,5-d][1,2,4]triazin-4-yl}amino)pyrrolidin-2-one]
1 to 10 nM	Cc1ccc(-c2nnc(NC3CCNC3=O)n3cncc23)c(CC(F)(F)F)c1 (centres unmarked) [Compound 288, 3-({1-[4-methyl-2-(2,2,2-trifluoroethyl)phenyl]imidazo[1,5-d][1,2,4]triazin-4-yl}amino)pyrrolidin-2-one]
< 1 nM	COc1ccc(-c2nnc(N[C@@H]3CCCN(C)C3)n3cncc23)c(OC(F)(F)F)c1 [Compound 208, 1-[4-methoxy-2-(trifluoromethoxy)phenyl]-N-[(3R)-1-methylpiperidin-3-yl]imidazo[1,5-d][1,2,4]triazin-4-amine]
1 to 10 nM	COc1ccc(-c2nnc(N[C@@H]3CCC[C@H](O)C3)n3cncc23)c(CC(F)(F)F)c1 [Compound 302, (1S,3R)-3-({1-[4-methoxy-2-(2,2,2-trifluoroethyl)phenyl]imidazo[1,5-d][1,2,4]triazin-4-yl}amino)cyclohexan-1-ol]
10 to 100 nM	COc1ccc(-c2nnc(N[C@H]3C[C@](C)(CO)C3)n3cncc23)c(CC(F)(F)F)c1 [Compound 336, [(1r,3r)-3-({1-[4-methoxy-2-(2,2,2-trifluoroethyl)phenyl]imidazo[1,5-d][1,2,4]triazin-4-yl}amino)-1-methylcyclobutyl]methanol]
1 to 10 nM	CC(Nc1nnc(-c2ccc(C3CC3)cc2CC(F)(F)F)c2cncn12)c1cccc(O)c1 (centres unmarked) [Compound 354, 3-[1-({1-[4-cyclopropyl-2-(2,2,2-trifluoroethyl)phenyl]imidazo[1,5-d][1,2,4]triazin-4-yl}amino)ethyl]phenol]

The next lines start with the molecule.

Compound	IC50
COc1ccc(-c2nnc(NC3CCNC3=O)n3cc(C)cc23)c(OC(F)(F)F)c1 (centres unmarked) [Compound 162, 3-({1-[4-methoxy-2-(trifluoromethoxy)phenyl]-7-methylpyrrolo[1,2-d][1,2,4]triazin-4-yl}amino)pyrrolidin-2-one]	1 to 10 nM
COc1ccc(-c2nnc(N[C@@H]3CCCC[C@H]3O)n3cccc23)c(OC(F)F)c1 [Compound 177, (1R,2R)-2-({1-[2-(difluoromethoxy)-4-methoxyphenyl]pyrrolo[1,2-d][1,2,4]triazin-4-yl}amino)cyclohexan-1-ol]	10 to 100 nM
COc1ccc(-c2nnc(N[C@@H]3CCOC[C@H]3O)n3cc(C)cc23)c(OC(F)(F)F)c1 [Compound 165, (3S,4R)-4-({1-[4-methoxy-2-(trifluoromethoxy)phenyl]-7-methylpyrrolo[1,2-d][1,2,4]triazin-4-yl}amino)oxan-3-ol]	1 to 10 nM
CCN1CCC[C@@H](Nc2nnc(-c3ccc(OC)cc3OC(F)F)c3cccn23)C1 [Compound 166, 1-[2-(difluoromethoxy)-4-methoxyphenyl]-N-[(3R)-1-ethylpiperidin-3-yl]pyrrolo[1,2-d][1,2,4]triazin-4-amine]	< 1 nM
O[C@@H]1CCCC[C@@H]1Nc1nnc(-c2ccc(C(F)(F)F)cc2OC(F)F)c2cccn12 [Compound 79, (1R,2S)-2-({1-[2-(difluoromethoxy)-4-(trifluoromethyl)phenyl]pyrrolo[1,2-d][1,2,4]triazin-4-yl}amino)cyclohexan-1-ol]	10 to 100 nM
COc1ccc(-c2nnc(N[C@@H]3CCC[C@H](O)C3)n3cccc23)c(OC(F)(F)F)c1 [Compound 62, (1S,3R)-3-({1-[4-methoxy-2-(trifluoromethoxy)phenyl]pyrrolo[1,2-d][1,2,4]triazin-4-yl}amino)cyclohexan-1-ol]	10 to 100 nM
OCCN1CCC[C@@H](Nc2nnc(-c3ccc(C(F)(F)F)cc3F)c3cccn23)C1 [Compound 21, 2-[(3R)-3-({1-[2-fluoro-4-(trifluoromethyl)phenyl]pyrrolo[1,2-d][1,2,4]triazin-4-yl}amino)piperidin-1-yl]ethan-1-ol]	10 to 100 nM
C[C@]1(O)C[C@@H](Nc2nnc(-c3ccc(C(F)(F)F)cc3CC(F)(F)F)c3cccn23)C1 [Compound 41, (1s,3s)-1-methyl-3-({1-[2-(2,2,2-trifluoroethyl)-4-(trifluoromethyl)phenyl]pyrrolo[1,2-d][1,2,4]triazin-4-yl}amino)cyclobutan-1-ol]	1 to 10 nM
COc1ccc(-c2nnc(N[C@H]3CCCC[C@]3(C)O)n3cccc23)c(OC(F)(F)F)c1 (single isomer, unassigned) [Compound 180]	1 to 10 nM
COc1ccc(-c2nnc(N[C@@H]3CCCN(CCO)C3)n3ccc(F)c23)c(OC(F)F)c1 [Compound 57, 2-[(3R)-3-({1-[2-(difluoromethoxy)-4-methoxyphenyl]-8-fluoropyrrolo[1,2-d][1,2,4]triazin-4-yl}amino)piperidin-1-yl]ethan-1-ol]	10 to 100 nM
CN1CCC[C@@H](CNc2nnc(-c3ccc(C(F)(F)F)cc3CC(F)(F)F)c3cccn23)C1 [Compound 146, N-{[(3S)-1-methylpiperidin-3-yl]methyl}-1-[2-(2,2,2-trifluoroethyl)-4-(trifluoromethyl)phenyl]pyrrolo[1,2-d][1,2,4]triazin-4-amine]	1 to 10 nM
COc1ccc(-c2nnc(N[C@H]3C[C@@](C)(O)C3)n3ccc(F)c23)c(Cl)c1 [Compound 84, (1s,3s)-3-{[1-(2-chloro-4-methoxyphenyl)-8-fluoropyrrolo[1,2-d][1,2,4]triazin-4-yl]amino}-1-methylcyclobutan-1-ol]	10 to 100 nM
COc1ccc(-c2nnc(NC[C@@H]3CCCN3C)n3cccc23)c(OC(F)(F)F)c1 [Compound 74, 1-[4-methoxy-2-(trifluoromethoxy)phenyl]-N-{[(2S)-1-methylpyrrolidin-2-yl]methyl}pyrrolo[1,2-d][1,2,4]triazin-4-amine]	10 to 100 nM
COc1ccc(-c2nnc(N[C@@H]3CCOC[C@H]3O)n3cccc23)c(OC(F)F)c1 [Compound 167, (3S,4R)-4-({1-[2-(difluoromethoxy)-4-methoxyphenyl]pyrrolo[1,2-d][1,2,4]triazin-4-yl}amino)oxan-3-ol]	10 to 100 nM
OCCN1CCC[C@@H](Nc2nnc(-c3ccc(C(F)(F)F)cc3OC(F)F)c3cncn23)C1 [Compound 186, 2-[(3R)-3-({1-[2-(difluoromethoxy)-4-(trifluoromethyl)phenyl]imidazo[1,5-d][1,2,4]triazin-4-yl}amino)piperidin-1-yl]ethan-1-ol]	< 1 nM
Cc1cc2c(-c3ccc(Cl)cc3OC(F)F)nnc(N[C@@H]3CCCN(C)C3)n2c1 [Compound 13, 1-[4-chloro-2-(difluoromethoxy)phenyl]-7-methyl-N-[(3R)-1-methylpiperidin-3-yl]pyrrolo[1,2-d][1,2,4]triazin-4-amine]	1 to 10 nM
OCCN1CCC[C@@H](Nc2nnc(-c3ccc(C(F)(F)F)cc3OC(F)(F)F)c3cccn23)C1 [Compound 120, 2-[(3R)-3-({1-[2-(trifluoromethoxy)-4-(trifluoromethyl)phenyl]pyrrolo[1,2-d][1,2,4]triazin-4-yl}amino)piperidin-1-yl]ethan-1-ol]	< 1 nM
